For orientation: IC50 means the concentration needed to halve the response being measured.

Each structure is given as a SMILES string.

The record followed here is US7060824B2, “Pyrrolotriazolopyrimidinone derivatives” (Almirall Prodesfarma, S.A., priority 2000, dated 2006).

This assay deals with T1, cyclic GMP specific phosphodiesterase (PDE 5) (Homo sapiens, UniProt O76074).
T1 construct: was isolated from human platelet lysates by ion exchange chromatography using a Mono-Q column; from tissue; host or cells: human platelets (lysate, Mono-Q ion exchange fraction)
Put plainly: PDE 5 inhibition, enzyme isolated from human platelet lysates, [3H]-cyclic GMP substrate. It is filed as biochemical. The following applies: enzyme from human platelet lysates (Mono-Q); 0.25 mM [3H]-cyclic GMP as substrate; read-out: IC50 PDE5. The protocol: The cyclic GMP specific phosphodiesterase (PEE 5) was isolated from human platelet lysates by ion exchange chromatography using a Mono-Q column. The enzyme activity was determined using 0.25 mM [3H]-cyclic GMP as substrate. The purification of the enzyme and the assessment of the PDE 5 inhibitory activity of our compounds were performed essentially as described by Gristwood et al., Br. J. Pharmacol. 1992, 105, 985–991.

Turning to `CCCOc1ccc(S(=O)(=O)N2CCN(CCO)CC2)cc1-c1[nH]c2c(c1Br)n(CCC)c(=O)n1cnnc21` [Example 73, 7-Bromo-8-{5-[4-(2-hydroxyethyl)piperazine-1-sulfonyl]-2-propoxyphenyl}-6-propyl-6,9-dihydro-5H-pyrrolo[2,3-e][1,2,4]triazolo[4,3-c]pyrimidine-5-one], the IC50 came to 0.33 nM.
Next, `CCCOc1ccc(S(=O)(=O)NCCO)cc1-c1[nH]c2c(c1Cl)n(CCC)c(=O)n1cnnc21` [Example 50, 3-(7-Chloro-5-oxo-6-propyl-6,9-dihydro-5H-pyrrolo[2,3-e][1,2,4]triazolo[4,3-c]pyrimidin-8-yl)-N-(2-hydroxyethyl)-4-propoxybenzenesulfonamide]: 0.15 nM; `CCCn1c(=O)n2cnnc2c2[nH]c(-c3cc(S(=O)(=O)N4CCN5CCC[C@H]5C4)ccc3OCC)c(Cl)c21` [Example 75, 7-Chloro-8-[2-ethoxy-5-((S)-hexahydropyrrolo[1,2-a]pyrazine-2-sulfonyl)phenyl]-6-propyl-6,9-dihydro-5H-pyrrolo[2,3-e][1,2,4]triazolo[4,3-c]pyrimidine-5-one]: 0.19 nM; `CCCOc1ccc(S(=O)(=O)NC2CC(C)(C)NC(C)(C)C2)cc1-c1[nH]c2c(c1Cl)n(CCC)c(=O)n1cnnc21` [Example 41, 3-(7-Chloro-5-oxo-6-propyl-6,9-dihydro-5H-pyrrolo[2,3-e][1,2,4]triazolo[4,3-c]pyrimidin-8-yl)-4-propoxy-N-(2,2,6,6-tetramethylpiperidin-4-yl)benzenesulfonamide]: 0.17 nM.
Turning to `CCCOc1ccc(S(=O)(=O)N2CCNCC2)cc1-c1[nH]c2c(c1Br)n(CCC)c(=O)n1cnnc21` [Example 74, 7-Bromo-8-[5-(piperazine-1-sulfonyl)-2-propoxyphenyl]-6-propyl-6,9-dihydro-5H-pyrrolo[2,3-e][1,2,4]triazolo[4,3-c]pyrimidine-5-one], the IC50 was 0.25 nM.
For `CCCOc1ccc(S(=O)(=O)N2CCN(CCCO)CC2)cc1-c1[nH]c2c(c1Cl)n(CCC)c(=O)n1cnnc21` [Example 34, 7-Chloro-8-{5-[4-(3-hydroxypropyl)piperazine-1-sulfonyl)-2-propoxyphenyl]-6-propyl-6,9-dihydro-5H-pyrrolo[2,3-e][1,2,4]triazolo[4,3-c]pyrimidine-5-one] the value was 0.22 nM; for `CCCn1c(=O)n2cnnc2c2[nH]c(-c3cc(S(=O)(=O)N4CCCN(C)CC4)ccc3OCC)c(Cl)c21` [Example 11, 7-Chloro-8-[2-ethoxy-5-(4-methyl-[1,4]diazepane-1-sulfonyl)phenyl]-6-propyl-6,9-dihydro-5H-pyrrolo[2,3-e][1,2,4]triazolo[4,3-c]pyrimidine-5-one], 0.099 nM; for `C=CCN1CCN(S(=O)(=O)c2ccc(OCCC)c(-c3[nH]c4c(c3Cl)n(CCC)c(=O)n3cnnc43)c2)CC1` [Example 45, 8-[5-(4-Allylpiperazine-1-sulfonyl)-2-propoxyphenyl]-7-chloro-6-propyl-6,9-dihydro-5H-pyrrolo[2,3-e][1,2,4]triazolo[4,3-c]pyrimidine-5-one], 0.21 nM.
In the case of `CCCn1c(=O)n2cnnc2c2[nH]c(-c3cc(S(=O)(=O)N4C[C@@H]5C[C@H]4CN5C)ccc3OCC)c(Cl)c21` [Example 79, 7-Chloro-8-[2-ethoxy-5-((1S, 4S)-5-methyl-2,5-diazabicyclo[2.2.1]heptane-2-sulfonyl)phenyl]-6-propyl-6,9-dihydro-5H-pyrrolo[2,3-e][1,2,4]triazolo[4,3-c]pyrimidine-5-one], the IC50 came out at 0.19 nM.
Next, `CCCOc1ccc(S(=O)(=O)N2CCN(C)CC2)cc1-c1[nH]c2c(c1Br)n(CCC)c(=O)n1cnnc21` [Example 58, 7-Bromo-8-[5-(4-methylpiperazine-1-sulfonyl)-2-propoxyphenyl]-6-propyl-6,9-dihydro-5H-pyrrolo[2,3-e][1,2,4]triazolo[4,3-c]pyrimidine-5-one]: 0.3 nM; `CCCn1c(=O)n2cnnc2c2[nH]c(-c3cc(S(=O)(=O)N4CCN(CCOCC)CC4)ccc3OCC)c(Cl)c21` [Example 24, 7-Chloro-8-{2-ethoxy-5-[4-(2-ethoxyethyl)piperazine-1-sulfonyl]phenyl}-6-propyl-6,9-dihydro-5H-pyrrolo[2,3-e][1,2,4]triazolo[4,3-c]pyrimidine-5-one]: 0.042 nM; `CCCOc1ccc(S(=O)(=O)N2CCCN(CCO)CC2)cc1-c1[nH]c2c(c1Br)n(CCC)c(=O)n1cnnc21` [Example 71, 7-Bromo-8-(5-[4-(2-Hydroxyethyl)-[1,4]diazepane-1-sulfonyl]-2-propoxyphenyl}-6-propyl-6,9-dihydro-5H-pyrrolo[2,3-e][1,2,4]triazolo[4,3-c]pyrimidine-5-one]: 0.12 nM.
